Measurements taken from patent US8642622B2, “Piperidinyl compound as a modulator of chemokine receptor activity” (Bristol-Myers Squibb Company, priority 2010, dated 2014).

Tests used:
[1] = Electrocardiography in anesthetized rabbits (rabbit in vivo EP effect)
Method: A dose-response study of test compound was conducted in anesthetized rabbits to assess the cardiac electrophysiologic profile established in the cellular ion channel assays.
Experiments were performed in propofol-fentanyl anesthetized closed-chest male rabbits. A body surface electrocardiogram (ECG) and an intra-cardiac His-bundle electrogram were continuously monitored and recorded during the studies, using a PoNeMah system and a Prucka electrophysiological recording system, respectively. Test compound was prepared on the day of study in a vehicle of PEG400:ethanol:water (1:1:1) at a dosing concentration of 30 mg/mL. Test compound (n=3) or vehicle (n=3) was given intravenously over 5 minutes via an infusion pump at incremental doses of 3, 10 and 30 mg/kg. The interval between doses was 10 minutes, allowing for a 5-minute test agent infusion and a 5-minute rest period. Blood was sampled at baseline (pre-drug infusion) and immediately at the end of each infusion. For the 30 mg/kg dose, additional blood samples were taken at 10, 20 and 30 minutes after the end of infusion.
PR interval, QRS duration and QT interval were averaged from a 1 minute ECG recording period at time of blood sampling. QT interval was corrected for heart rate effects using both Fridericia (QTcf) and Van der Water (QTcv) formulae. AH and HV intervals, representing A-V node conduction and His-Purkinje conduction, respectively, were assessed by manual measurements from the His-bundle electrogram. Data were expressed as percent change from pre-drug baseline (mean±SEM) for PR, QRS, AH and HV intervals as well as delta change from the pre-drug infusion baseline (mean±SEM) for QTc intervals. Changes of 10% in PR, QRS, and AH intervals, and 20% in HV interval, as well as >10 ms in QTc interval are considered significant based on experience with the model.

[2] = target: T1, human cardiac sodium channel, SCNSA (Homo sapiens, UniProt Q14524); assay: Sodium channel whole-cell patch-clamp assay; type: cell-based; settings: HEK293, HEK-293, protein-free buffer, read-out: Na channel, % inh
T1 construct: expressed in transfected cells; host or cells: HEK-293
T1 sequence (Q14524 whole entry): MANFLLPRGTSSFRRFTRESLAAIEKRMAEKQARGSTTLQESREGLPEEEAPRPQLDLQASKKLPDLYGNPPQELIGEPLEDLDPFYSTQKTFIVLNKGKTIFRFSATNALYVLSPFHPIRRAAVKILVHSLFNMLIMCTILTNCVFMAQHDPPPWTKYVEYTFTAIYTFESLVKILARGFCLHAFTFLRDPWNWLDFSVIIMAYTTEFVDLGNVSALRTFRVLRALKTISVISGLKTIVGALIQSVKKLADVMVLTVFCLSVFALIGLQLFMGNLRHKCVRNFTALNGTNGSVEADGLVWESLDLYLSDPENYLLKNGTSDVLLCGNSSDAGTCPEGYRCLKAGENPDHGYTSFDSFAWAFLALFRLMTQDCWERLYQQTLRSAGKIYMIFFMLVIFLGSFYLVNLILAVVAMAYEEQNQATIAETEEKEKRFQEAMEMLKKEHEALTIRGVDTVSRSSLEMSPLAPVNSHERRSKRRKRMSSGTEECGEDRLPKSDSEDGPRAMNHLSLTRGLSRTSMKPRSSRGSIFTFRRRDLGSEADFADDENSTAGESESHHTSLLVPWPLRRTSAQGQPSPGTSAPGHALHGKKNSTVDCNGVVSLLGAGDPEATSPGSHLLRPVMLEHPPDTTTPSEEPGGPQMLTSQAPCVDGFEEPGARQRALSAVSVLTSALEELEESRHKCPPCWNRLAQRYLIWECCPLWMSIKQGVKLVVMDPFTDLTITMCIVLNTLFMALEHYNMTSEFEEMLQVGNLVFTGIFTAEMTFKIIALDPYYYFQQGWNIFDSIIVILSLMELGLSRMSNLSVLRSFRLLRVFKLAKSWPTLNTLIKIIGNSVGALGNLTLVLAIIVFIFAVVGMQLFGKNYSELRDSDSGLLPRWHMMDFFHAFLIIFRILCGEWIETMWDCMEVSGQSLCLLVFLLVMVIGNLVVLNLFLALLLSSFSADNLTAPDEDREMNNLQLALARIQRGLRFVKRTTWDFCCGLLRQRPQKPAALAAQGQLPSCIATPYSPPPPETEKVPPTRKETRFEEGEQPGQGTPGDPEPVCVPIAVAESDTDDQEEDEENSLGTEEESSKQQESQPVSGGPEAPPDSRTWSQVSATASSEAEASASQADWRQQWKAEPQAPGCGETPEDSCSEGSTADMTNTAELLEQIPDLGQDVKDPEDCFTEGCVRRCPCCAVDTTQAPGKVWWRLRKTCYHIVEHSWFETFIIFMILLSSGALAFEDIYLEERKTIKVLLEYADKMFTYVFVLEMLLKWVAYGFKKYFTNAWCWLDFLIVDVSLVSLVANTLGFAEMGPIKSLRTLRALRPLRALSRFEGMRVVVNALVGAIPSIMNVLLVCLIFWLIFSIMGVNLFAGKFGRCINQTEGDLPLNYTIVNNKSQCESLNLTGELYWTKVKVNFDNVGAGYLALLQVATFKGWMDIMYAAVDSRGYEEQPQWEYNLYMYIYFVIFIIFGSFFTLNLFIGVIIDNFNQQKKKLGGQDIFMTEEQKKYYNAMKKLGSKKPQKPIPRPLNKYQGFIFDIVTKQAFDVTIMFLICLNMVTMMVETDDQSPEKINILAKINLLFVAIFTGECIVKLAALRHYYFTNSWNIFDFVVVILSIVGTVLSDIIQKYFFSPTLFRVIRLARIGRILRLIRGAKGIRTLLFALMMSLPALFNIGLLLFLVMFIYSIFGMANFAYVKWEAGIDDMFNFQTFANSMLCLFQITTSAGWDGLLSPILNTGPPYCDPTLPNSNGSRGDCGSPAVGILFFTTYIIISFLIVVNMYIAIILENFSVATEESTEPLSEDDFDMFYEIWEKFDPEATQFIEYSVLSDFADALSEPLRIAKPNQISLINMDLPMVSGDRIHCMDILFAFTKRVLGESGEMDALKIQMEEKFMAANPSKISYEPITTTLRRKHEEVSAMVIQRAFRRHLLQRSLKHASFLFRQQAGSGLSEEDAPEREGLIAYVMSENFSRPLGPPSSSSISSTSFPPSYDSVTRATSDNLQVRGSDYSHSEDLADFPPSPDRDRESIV
Method: Whole-cell patch-clamp was used to directly measure inward sodium currents in HEK-293 cells expressing the human cardiac sodium channel, SCNSA. After reach steady-state effect in the presence of drug, rate-dependence was assessed by stimulation at frequencies of 1 Hz and 4 Hz. Experiments were carried out using an aqueous buffer at pH 7.4 and at room temperature. There is no protein in the buffer and drug concentrations reported are nominal free drug levels. Test article was evaluated up to 10 μM (protein-free buffer). […] Data is reported as percent inhibition at a fixed concentration.

[3] = Single-dose pharmacokinetics in rats; type: in vivo; settings: male, Sprague-Dawley, rat, plasma; for bioavailability: po
Method: Serial blood samples were collected for all studies from the jugular vein at various time points post dose (0.17 (or 0.25 for oral), 0.5, 0.75, 1, 2, 4, 6, 8 and 24 h, for example). Plasma samples were analyzed by LC-MS/MS.
Additional studies evaluating suspensions of crystalline drug substance in aqueous medium were performed as described above.

[4] = Single-dose pharmacokinetics in dogs; type: in vivo; settings: male, beagle, dog, plasma
Method: Serial blood samples were collected for all studies at various time points post dose (0.17 (or 0.25 for oral), 0.5, 0.75, 1, 2, 4, 6, 8 and 24 h, for example). Plasma samples were analyzed by LC-MS/MS.

CC(C)[C@@H](NC(=O)c1cccc(S(N)(=O)=O)c1)C(=O)N1CC[C@](O)(c2ccc(Cl)cc2)C(C)(C)C1 [Example 491]
Cmax: Free drug (at NOEL dose) ([1]; at NOEL dose, free drug): 3.1 µM | Cmax: Free drug (at QT effect dose) ([1]; at QT effect dose, free drug): 5.5 µM | NOEL dose ([1]; i.v. infusion): 10 mg/kg | QT effect Dose ([1]; i.v. infusion 3, 10, 30 mg/kg): 30 mg/kg | QTcf, delta ([1]; i.v. infusion, change from pre-drug baseline): +17 ms | inhibition at 10 µM [2]: 13% | clearance ([3]; intravenous): 4.02 L/h/kg | bioavailability ([3]; crystalline suspension in aqueous medium, read-out: Relative bioavailability when dosed as a crystalline suspension): 0% | bioavailability ([3]; oral solution, read-out: Rat oral bioavailability when dosed as solution): 23% | clearance ([4]; intravenous): 0.474 L/h/kg | bioavailability ([4]; oral solution, read-out: dog oral bioavailability when dosed as solution): 100%
